Results reported in ChEMBL document CHEMBL1144076, “New guaianolides and xanthine oxidase inhibitory flavonols from ajania fruticulosa” (J Nat Prod, 1999).

Target: Xanthine dehydrogenase/oxidase (Homo sapiens, UniProt P47989)
Assay: Inhibition of xanthine oxidase by spectrophotometry

Chain of Xanthine dehydrogenase/oxidase (P47989 whole entry): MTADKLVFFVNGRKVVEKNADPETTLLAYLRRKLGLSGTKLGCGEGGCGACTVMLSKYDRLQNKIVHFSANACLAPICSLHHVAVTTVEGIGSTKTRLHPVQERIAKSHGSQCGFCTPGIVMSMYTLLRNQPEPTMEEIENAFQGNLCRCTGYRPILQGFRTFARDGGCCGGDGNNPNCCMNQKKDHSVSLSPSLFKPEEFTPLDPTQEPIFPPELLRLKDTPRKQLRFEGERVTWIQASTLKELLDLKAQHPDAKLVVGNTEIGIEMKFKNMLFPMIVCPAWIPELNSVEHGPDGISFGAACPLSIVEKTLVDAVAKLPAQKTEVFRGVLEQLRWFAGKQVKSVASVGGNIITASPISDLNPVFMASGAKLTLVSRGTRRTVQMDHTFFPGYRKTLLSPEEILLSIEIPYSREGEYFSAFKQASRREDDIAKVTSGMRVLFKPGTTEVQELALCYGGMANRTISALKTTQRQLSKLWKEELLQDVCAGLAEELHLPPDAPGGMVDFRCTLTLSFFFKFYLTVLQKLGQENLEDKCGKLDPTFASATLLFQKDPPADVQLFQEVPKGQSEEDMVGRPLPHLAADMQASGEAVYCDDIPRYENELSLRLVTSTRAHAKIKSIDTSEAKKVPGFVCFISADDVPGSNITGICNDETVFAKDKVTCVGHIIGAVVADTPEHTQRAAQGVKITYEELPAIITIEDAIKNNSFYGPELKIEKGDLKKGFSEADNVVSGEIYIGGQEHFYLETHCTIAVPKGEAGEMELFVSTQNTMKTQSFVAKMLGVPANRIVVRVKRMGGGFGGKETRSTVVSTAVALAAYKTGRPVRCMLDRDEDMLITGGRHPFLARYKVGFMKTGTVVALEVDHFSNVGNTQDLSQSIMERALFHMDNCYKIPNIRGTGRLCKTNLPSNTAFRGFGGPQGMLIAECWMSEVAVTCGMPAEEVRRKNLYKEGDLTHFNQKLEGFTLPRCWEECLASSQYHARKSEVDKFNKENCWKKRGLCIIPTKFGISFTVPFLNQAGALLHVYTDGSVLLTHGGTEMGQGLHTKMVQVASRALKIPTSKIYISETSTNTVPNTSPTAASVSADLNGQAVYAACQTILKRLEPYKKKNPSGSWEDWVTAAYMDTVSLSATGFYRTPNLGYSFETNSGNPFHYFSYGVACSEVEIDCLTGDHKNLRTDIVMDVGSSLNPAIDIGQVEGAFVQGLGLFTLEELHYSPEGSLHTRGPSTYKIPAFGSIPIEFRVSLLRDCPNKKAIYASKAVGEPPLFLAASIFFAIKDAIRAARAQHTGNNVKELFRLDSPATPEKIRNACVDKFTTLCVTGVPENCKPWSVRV

COc1c(O)cc2oc(-c3ccc(O)c(O)c3)c(OC)c(=O)c2c1O [AXILLARIN]
IC50: 36 µM

COc1ccc(-c2oc3cc(O)c(OC)c(O)c3c(=O)c2OC)cc1 [SANTIN]
IC50: 36.5 µM
